One data set has as its target T1, P. aeruginosa RmlA (Pseudomonas aeruginosa, UniProt Q9HU22).
T1 construct: made in house
Kind of data set: In vitro RmlA inhibition assay (BIOMOL Green phosphate detection). As to conditions: for inhibition at 10 µM: 10 μM inhibitor, 30 min, room temperature; for inhibition at 10 µM / IC50: 15 nM recombinant RmlA, 5 μM dTTP, 5 μM G-1-P; for LE (Ligand efficiency): LE = pIC50/number of heavy atoms; for LLE (Lipophilic ligand efficiency): LLE = pIC50 – cLogP; for IC50: ± SD, n = 3; for increase in potency compared to 1b: ratio of IC50 values vs 1b. Format: biochemical. The method, then:
Each assay was performed in a 101 μL reaction volume containing 50 mM Tris (pH 7.4), 5 mM MgCl2, 1 mM dithiothreitol, 0.1 mM EDTA (pH 8.0), 0.1 mM EGTA (pH 8.0), 0.05% NP-40, 15 nM recombinant RmlA, 0.8 μg/ml pyrophosphatase, 5 μM dTTP and 5 μM G-1-P. The inhibitor was added to the plate (20 μL) followed by RmlA (30 μL). The reaction was initiated with the addition of dTTP (25 μL), G-1-P (25 μL) and pyrophosphatase (1 μL) as a mixture in one charge (51 μL total) and the assay was allowed to run for 30 min at room temperature. The reaction was quenched by addition of BIOMOL™ Green reagent (100 μL) and was allowed to develop before the absorbance of each well was measured at 620 nm.

For the next data set, the system named is M.tuberculosis (H37Rv). The arrangement: method as in PMID 23138692. As to conditions: cited from earlier work.

Results on nine compounds are retold here after paper PMC8613358, “Next generation Glucose-1-phosphate thymidylyltransferase (RmlA) inhibitors: An extended SAR study to direct future design” (Bioorganic & Medicinal Chemistry, 2021).

Converted amounts (≈) assume the structure as drawn. “Also recorded” adds a separate entry of the source. Where a name gives a salt, the structure may show the parent alone.

T1 sequence (Q9HU22 1-293): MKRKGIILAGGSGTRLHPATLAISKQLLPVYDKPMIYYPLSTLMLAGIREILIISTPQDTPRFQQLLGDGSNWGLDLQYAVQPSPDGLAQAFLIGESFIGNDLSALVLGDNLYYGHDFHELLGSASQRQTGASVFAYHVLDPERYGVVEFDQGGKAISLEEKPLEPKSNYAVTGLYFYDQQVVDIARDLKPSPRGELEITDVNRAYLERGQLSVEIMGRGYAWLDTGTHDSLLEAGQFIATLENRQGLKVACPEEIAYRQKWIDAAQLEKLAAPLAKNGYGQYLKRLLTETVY

For `CNCCNc1c(N(C)S(=O)(=O)c2ccccc2)c(=O)[nH]c(=O)n1Cc1ccc(Br)cc1` [Compound 1c, N-(1-(4-bromobenzyl)-6-((2-(methylamino)ethyl)amino)-2,4-dioxo-1,2,3,4-tetrahydropyrimidin-5-yl)-N-methylbenzenesulfonamide], at P. aeruginosa RmlA, the “activity against P. aeruginosa RmlA (in words)” value is “complete loss of activity; also recorded: lost the inhibitory activity” and the inhibition at 10 µM was determined as 0%.

`CNCCCNc1c(N(C)S(=O)(=O)c2ccccc2)c(=O)[nH]c(=O)n1Cc1ccc(Br)cc1` (as salt: TFA) [Compound 1b, N-(1-(4-bromobenzyl)-6-((3-(methylamino)propyl)amino)-2,4-dioxo-1,2,3,4-tetrahydropyrimidin-5-yl)-N-methylbenzenesulfonamide] displayed a melting point of 294 to 297 °C.

On to `CN(c1c(N)n(Cc2ccc(Br)cc2)c(=O)[nH]c1=O)S(=O)(=O)c1ccccc1` [Compound 1a], for which, on P. aeruginosa RmlA, the inhibition at 10 µM is 100%, the “LE (Ligand efficiency)” value turned out to be 0.37, the “LLE (Lipophilic ligand efficiency)” value came out at 5.20 and the IC50 was determined as 34 ± 2 nM.

For the compound `CNCCNc1c(N(C)S(=O)(=O)c2ccccc2)c(=O)[nH]c(=O)n1Cc1ccc(Br)cc1` (as salt: TFA) [Compound 1c, N-(1-(4-bromobenzyl)-6-((2-(methylamino)ethyl)amino)-2,4-dioxo-1,2,3,4-tetrahydropyrimidin-5-yl)-N-methylbenzenesulfonamide], the melting point lay in the range of 283 to 286 °C.

The compound `CN(c1c(NCCCn2cc(CN)nn2)n(Cc2ccccc2)c(=O)[nH]c1=O)S(=O)(=O)c1ccccc1` [Compound 1f] showed a melting point of 295 to 297 °C. In addition, on P. aeruginosa RmlA, the inhibition at 10 µM was determined as 100%, the “LE (Ligand efficiency)” value is on record as 0.21, the “LLE (Lipophilic ligand efficiency)” value was 4.50 and the IC50 came out at 2470 ± 20 nM.

As for `CNCCCNc1c(N(C)S(=O)(=O)c2ccccc2)c(=O)[nH]c(=O)n1Cc1ccc(Br)cc1` [Compound 1b, N-(1-(4-bromobenzyl)-6-((3-(methylamino)propyl)amino)-2,4-dioxo-1,2,3,4-tetrahydropyrimidin-5-yl)-N-methylbenzenesulfonamide], at P. aeruginosa RmlA, the inhibition at 10 µM was determined as 100%, the “LE (Ligand efficiency)” value was 0.30, the “LLE (Lipophilic ligand efficiency)” value turned out to be 4.30 and the IC50 stood at 860 ± 96 nM.

Regarding `CN(c1c(N)n(Cc2ccccc2)c(=O)[nH]c1=O)S(=O)(=O)c1ccccc1` [Compound 8a], the “MIC100 (M. tuberculosis)” value in the data set on M.tuberculosis (H37Rv) was 100 µg/mL (≈ 259 µM).

In turn, `CN(c1c(NCCCCCN)n(Cc2ccc(Br)cc2)c(=O)[nH]c1=O)S(=O)(=O)c1ccccc1` [Compound 1e, N-(6-((5-aminopentyl)amino)-1-(4-bromobenzyl)-2,4-dioxo-1,2,3,4-tetrahydropyrimidin-5-yl)-N-methylbenzenesulfonamide] showed a melting point of 317 to 319 °C. For the same compound, at P. aeruginosa RmlA, the inhibition at 10 µM came out at 100%, the “LE (Ligand efficiency)” value is on record as 0.27, the “LLE (Lipophilic ligand efficiency)” value was determined as 3.90 and the “increase in potency compared to 1b” value was ~2.5 fold. For the same compound, the IC50 on P. aeruginosa RmlA was determined as 316 ± 23 nM.

In turn, `CN(c1c(NCCCCN)n(Cc2ccc(Br)cc2)c(=O)[nH]c1=O)S(=O)(=O)c1ccccc1` [Compound 1d, N-(6-((4-aminobutyl)amino)-1-(4-bromobenzyl)-2,4-dioxo-1,2,3,4-tetrahydropyrimidin-5-yl)-N-methylbenzenesulfonamide] showed a melting point of 311 to 313 °C. On P. aeruginosa RmlA, the inhibition at 10 µM turned out to be 100%, the “LE (Ligand efficiency)” value came out at 0.28, the “LLE (Lipophilic ligand efficiency)” value was 4.40 and the “increase in potency compared to 1b” value is reported as ~2.5 fold. Moreover, at P. aeruginosa RmlA, the IC50 was 303 ± 26 nM.
